Assays:
Dihydrofolate reductase = target: T1, Dihydrofolate reductase (Homo sapiens, UniProt P00374)
T1 sequence (P00374 whole entry): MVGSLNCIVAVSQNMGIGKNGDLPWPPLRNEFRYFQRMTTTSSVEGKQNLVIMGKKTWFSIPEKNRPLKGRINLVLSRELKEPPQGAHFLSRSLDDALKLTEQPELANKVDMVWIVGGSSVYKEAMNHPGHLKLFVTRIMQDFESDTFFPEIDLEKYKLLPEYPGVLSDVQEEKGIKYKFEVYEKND
Description: Compound was evaluated for Dihydrofolate Reductase (DHFR) inhibition

[1] = Compound was evaluated for cell growth inhibition of human (WI-L2) leukemic cells.; type: functional, cell-based; conditions: WIL2

| SMILES | IC50 (Dihydrofolate reductase) [µM] | IC50 [1] [µM] |
| --- | --- | --- |
| Cc1nc(N)c2nc(CN(C)c3ccc(C(=O)NC(CCC(=O)O)C(=O)O)cc3)cnc2n1 (stereo not drawn) | > 20 | – |
| CN(Cc1cnc2ncnc(N)c2n1)c1ccc(C(=O)NC(CCC(=O)O)C(=O)O)cc1 (stereo not drawn) | 6 | – |
| Nc1nc(N)c2nc(CNc3ccc(C(=O)N[C@@H](CCC(=O)O)C(=O)O)cc3)cnc2n1 [AMINOPTERIN] | – | 0.007 |

Source: ChEMBL document CHEMBL1125867 (J Med Chem, 1991)
